The subject of experiment [1] is I/R mice. As to the kind of experiment: Histopathology (H&E, Masson Trichrome) one week post-I/R in mice. It counts as in vivo, mouse. As to conditions: 2 mg/kg IP; one week after I/R. The source says:
(A) The representative echocardiographic images, (B) the quantification of ejection fraction, (C) the representative histopathologic […]) the quantification of infarct size were obtained from the mice with the indicated treatments for one week post-I/R (n=8). (E) The representative enlarged H&E stain obtained from mice one week post-I/R. The areas highlighted in yellow boxes (left panel) are shown by the enlarged view (right panel). (F) The representative Masson Trichrome stain obtained from mice one week post-I/R. The black arrows indicate the location of inflammation or fibrosis in the myocardium. I/R: I/R-mice treated with the vehicle control, I/R+A: […] treated with Auranofin. (B) and (D) **P<0.01. We anesthetized the mouse with 5% isoflurane mixed with room air until loss of sensation of pain and then maintained the mouse in anesthesia status with 2% isoflurane mixed with room air through the whole procedure. The mouse's body temperature was maintained at 37° C. by a heating pad. After the mouse was intubated, we provided artificial ventilation to the mouse with a small animal ventilator. Then the chest cavity was opened at the second intercostal space and homemade chest retractors were utilized to widen the incision. We pulled the pericardium apart carefully and exposed the left anterior descending artery (LAD). A 7-0 silk was put underneath the LAD at the position of the tip of the left auricle, a 6 mm length of PE-10 tube was put on the surface of the LAD, and then a double knot was made to occlude the blood flow of LAD. The success of ligation was confirmed by […] anterior wall of the LV. For the reperfusion group, the LAD knot would be untied for the purpose of reperfusion after 1 hour of ischemia. For the sham operation group, all procedures were the same except for the knot that occluded the LAD flow. After the successful procedure, we left the silk in situ, closed the chest cavity and weaned the animal from the ventilator.

Experiment [2] has as its system I/R mice. As to the kind of experiment: Myocardial infarct size (Evans blue/TTC staining) in I/R mice. The settings on record: 2 mg/kg IP. The class given is in vivo, mouse. Here is the method:
We anesthetized the mouse with 5% isoflurane mixed with room air until loss of sensation of pain and then maintained the mouse in anesthesia status with 2% isoflurane mixed with room air through the whole procedure. The mouse's body temperature was maintained at 37° C. by a heating pad. After the mouse was intubated, we provided artificial ventilation to the mouse with a small animal ventilator. Then the chest cavity was opened at the second intercostal space and homemade chest retractors were utilized to widen the incision. We pulled the pericardium apart carefully and exposed the left anterior descending artery (LAD). A 7-0 silk was put underneath the LAD at the position of the tip of the left auricle, a 6 mm length of PE-10 tube was put on the surface of the LAD, and then a double knot was made to occlude the blood flow of LAD. The success of ligation was confirmed by paling the anterior wall of the LV. For the reperfusion group, the LAD knot would be untied for the purpose of reperfusion after 1 hour of ischemia. For the sham operation group, all procedures were the same except for the knot that occluded the LAD flow. After the successful procedure, we left the silk in situ, closed the chest cavity and weaned the animal from the ventilator.
At the end of experiment, the animal was sacrificed. We opened the chest cavity and exposed the heart and aorta. The heart was perfused with 0.9% saline from the apex until the coronary vessels and myocardium turning into pale color. After saline perfusion, the LAD knot was tied again. 1 mL of 1% Evans blue dye was delivered into the heart through the aortic root by retrograde injection. The dye uniformly perfused the whole heart except in the area of the heart previously perfused by the occluded coronary artery (area at risk, AAR). Then the heart was quickly removed, washed in ice-cold 0.9% saline followed by frozen at −20° C. for 20 minutes, then cut into slices of 1 mm with heart matrix. […] The areas stained with Evans blue negative but TTC-positive (AAR), and TTC-negative area (infarct area) were all measured digitally by ImageJ software. […]

For `CC(=O)OC[C@H]1O[C@@H]([S-])[C@H](OC(C)=O)[C@@H](OC(C)=O)[C@@H]1OC(C)=O.CCP(CC)CC.[Au+]` [Auranofin, auranofin], in the experiment with I/R mice [1], the Fibrosis result is given as “less”; the “Infarct size (pathological study, H&E)” value is listed as “smaller”; the Infiltrating inflammatory cells entry is on record as “fewer”; the “Myocardial thinning over the injured area” value is on record as “a minor degree”. In the experiment with I/R mice [2] (four hours after reperfusion, versus vehicle-only controls), the Infarct size entry is recorded as “significantly decreased”. The Infarct size result in the experiment with I/R mice [2] (one day after reperfusion) was “smaller”.

The values above are taken from patent US20190298664A1, “METHOD AND KIT FOR MYOCARDIAL REPERFUSION, AND METHOD FOR ATTENUATING OR REDUCING MYOCARDIAL REPERFUSION INJURY” (Academia Sinica, priority 2018, published 2019).
